Assay results from BindingDB's records for doi:10.1016/s0960-894x(98)00738-0 (Cubist Pharmaceuticals, 1999).

Key:
[1] = target: Isoleucine--tRNA ligase (Escherichia coli) (UniProt P00956); assay: Inhibition of Escherichia coli isoleucyl-tRNA synthetase
[2] = target: Alanine--tRNA ligase (Escherichia coli) (UniProt P00957); assay: Compound tested for the inhibition of Escherichia coli Alanine-tRNA synthetase
[3] = target: Leucine--tRNA ligase (Escherichia coli) (UniProt P07813); assay: Compound tested for the inhibition of Escherichia coli Leucyl-tRNA synthetase
Leucine--tRNA ligase (Escherichia coli), sequence (P07813 whole entry, looked up): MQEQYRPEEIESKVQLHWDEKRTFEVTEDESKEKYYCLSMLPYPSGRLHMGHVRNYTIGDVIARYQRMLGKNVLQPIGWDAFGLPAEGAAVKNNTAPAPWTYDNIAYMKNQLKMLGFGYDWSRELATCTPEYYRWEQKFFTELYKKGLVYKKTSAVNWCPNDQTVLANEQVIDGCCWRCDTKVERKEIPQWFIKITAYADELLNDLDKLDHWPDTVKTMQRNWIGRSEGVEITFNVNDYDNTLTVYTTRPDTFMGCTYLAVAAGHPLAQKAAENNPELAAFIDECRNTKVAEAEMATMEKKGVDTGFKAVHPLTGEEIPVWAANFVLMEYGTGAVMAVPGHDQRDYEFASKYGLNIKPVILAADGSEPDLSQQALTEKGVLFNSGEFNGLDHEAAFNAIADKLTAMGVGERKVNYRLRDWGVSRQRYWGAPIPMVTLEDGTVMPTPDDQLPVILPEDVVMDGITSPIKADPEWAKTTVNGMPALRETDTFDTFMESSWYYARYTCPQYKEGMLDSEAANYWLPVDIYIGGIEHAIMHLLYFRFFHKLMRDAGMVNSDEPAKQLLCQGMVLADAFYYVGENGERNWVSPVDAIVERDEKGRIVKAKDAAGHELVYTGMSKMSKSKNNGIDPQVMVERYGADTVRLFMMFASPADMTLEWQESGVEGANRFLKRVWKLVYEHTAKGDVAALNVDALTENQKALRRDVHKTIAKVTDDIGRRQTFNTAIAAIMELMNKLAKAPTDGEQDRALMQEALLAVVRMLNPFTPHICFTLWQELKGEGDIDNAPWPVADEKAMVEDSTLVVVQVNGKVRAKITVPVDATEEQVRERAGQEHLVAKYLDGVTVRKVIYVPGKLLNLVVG

Isoleucine--tRNA ligase (Escherichia coli), sequence (P00956 whole entry, looked up): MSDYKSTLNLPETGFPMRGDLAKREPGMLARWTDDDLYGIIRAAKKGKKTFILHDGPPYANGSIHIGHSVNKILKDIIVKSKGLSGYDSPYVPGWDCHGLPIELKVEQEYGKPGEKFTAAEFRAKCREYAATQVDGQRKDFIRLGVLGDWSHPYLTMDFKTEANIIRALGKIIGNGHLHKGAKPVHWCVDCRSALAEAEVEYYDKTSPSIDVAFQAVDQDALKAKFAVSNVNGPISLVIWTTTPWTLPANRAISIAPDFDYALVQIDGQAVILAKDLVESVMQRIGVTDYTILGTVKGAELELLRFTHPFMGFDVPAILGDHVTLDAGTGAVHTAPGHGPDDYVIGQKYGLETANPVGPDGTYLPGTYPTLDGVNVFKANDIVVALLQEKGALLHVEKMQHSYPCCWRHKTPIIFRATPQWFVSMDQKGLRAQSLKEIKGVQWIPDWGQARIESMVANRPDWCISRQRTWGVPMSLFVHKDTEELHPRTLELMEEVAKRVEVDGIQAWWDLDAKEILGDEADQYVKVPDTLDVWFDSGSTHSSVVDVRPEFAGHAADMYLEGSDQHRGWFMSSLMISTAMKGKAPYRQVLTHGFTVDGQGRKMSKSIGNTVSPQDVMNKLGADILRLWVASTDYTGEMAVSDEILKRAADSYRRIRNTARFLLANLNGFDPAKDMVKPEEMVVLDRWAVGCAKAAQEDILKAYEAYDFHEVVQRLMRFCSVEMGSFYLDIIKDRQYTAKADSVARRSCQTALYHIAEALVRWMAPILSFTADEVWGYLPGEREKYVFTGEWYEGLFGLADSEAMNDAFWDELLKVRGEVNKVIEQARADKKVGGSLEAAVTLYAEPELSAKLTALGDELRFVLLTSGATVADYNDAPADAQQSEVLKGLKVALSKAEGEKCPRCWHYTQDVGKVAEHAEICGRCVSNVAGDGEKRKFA
Alanine--tRNA ligase (Escherichia coli), sequence (P00957 whole entry, looked up): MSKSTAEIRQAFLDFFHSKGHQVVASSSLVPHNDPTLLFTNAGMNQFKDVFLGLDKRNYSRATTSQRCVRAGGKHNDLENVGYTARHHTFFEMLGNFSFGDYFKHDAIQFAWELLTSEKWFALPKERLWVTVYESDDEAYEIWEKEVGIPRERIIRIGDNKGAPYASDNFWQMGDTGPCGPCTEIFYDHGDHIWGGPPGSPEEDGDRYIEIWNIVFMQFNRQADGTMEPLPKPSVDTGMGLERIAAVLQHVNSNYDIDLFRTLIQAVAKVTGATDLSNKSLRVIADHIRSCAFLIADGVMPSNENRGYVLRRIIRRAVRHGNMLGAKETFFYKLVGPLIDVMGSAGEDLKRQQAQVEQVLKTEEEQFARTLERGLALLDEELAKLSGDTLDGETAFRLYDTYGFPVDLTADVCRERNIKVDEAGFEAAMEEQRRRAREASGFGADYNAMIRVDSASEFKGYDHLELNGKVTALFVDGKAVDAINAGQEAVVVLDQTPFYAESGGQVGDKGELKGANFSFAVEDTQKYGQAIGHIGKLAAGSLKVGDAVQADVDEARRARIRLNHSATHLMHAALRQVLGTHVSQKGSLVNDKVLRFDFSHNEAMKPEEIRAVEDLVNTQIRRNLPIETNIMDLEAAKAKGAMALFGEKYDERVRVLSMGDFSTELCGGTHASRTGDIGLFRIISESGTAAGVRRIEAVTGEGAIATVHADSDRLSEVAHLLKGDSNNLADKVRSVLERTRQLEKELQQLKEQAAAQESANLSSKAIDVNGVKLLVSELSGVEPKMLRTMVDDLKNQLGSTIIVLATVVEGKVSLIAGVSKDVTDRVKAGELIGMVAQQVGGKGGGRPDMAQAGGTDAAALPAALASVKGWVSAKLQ

SMILES	IC50 [1]	IC50 [2]	IC50 [3]
N[C@@H](Cc1cnc[nH]1)C(=O)NS(=O)(=O)OC[C@H]1O[C@@H](c2nc(-c3ccccc3)cs2)[C@H](O)[C@@H]1O [[(S)-2-Amino-3-(3H-imidazol-4-yl)-propionyl]-sulfamic acid (2R,3S,4R,5R)-3,4-dihydroxy-5-(4-phenyl-thiazol-2-yl)-tetrahydro-furan-2-ylmethyl ester]	> 100000 nM	> 100000 nM	> 100000 nM
N[C@@H](Cc1ccccc1)C(=O)NS(=O)(=O)OC[C@H]1O[C@@H](c2nc(-c3ccccc3)cs2)[C@H](O)[C@@H]1O [((S)-2-Amino-3-phenyl-propionyl)-sulfamic acid (2R,3S,4R,5R)-3,4-dihydroxy-5-(4-phenyl-thiazol-2-yl)-tetrahydro-furan-2-ylmethyl ester]	> 100000 nM	> 100000 nM	> 100000 nM
CCC(C)[C@H](N)C(=O)NS(=O)(=O)OC[C@H]1O[C@@H](c2nc(-c3ccc4cc(OC)ccc4c3)cs2)[C@H](O)[C@@H]1O (stereo partly drawn) [((S)-2-Amino-3-methyl-pentanoyl)-sulfamic acid (2R,3S,4R,5R)-3,4-dihydroxy-5-[4-(6-methoxy-naphthalen-2-yl)-thiazol-2-yl]-tetrahydro-furan-2-ylmethyl ester]	20 nM	–	–
CC(C)C[C@H](N)C(=O)NS(=O)(=O)OC[C@H]1O[C@@H](c2nc(CCc3ccc(Oc4ccccc4)cc3)cs2)[C@H](O)[C@@H]1O [((S)-2-Amino-4-methyl-pentanoyl)-sulfamic acid (2R,3S,4R,5R)-3,4-dihydroxy-5-{4-[2-(4-phenoxy-phenyl)-ethyl]-thiazol-2-yl}-tetrahydro-furan-2-ylmethyl ester]	–	–	6 nM
C[C@H](N)C(=O)NS(=O)(=O)OC[C@H]1O[C@@H](c2nc(-c3ccccc3)cs2)[C@H](O)[C@@H]1O [((S)-2-Amino-propionyl)-sulfamic acid (2R,3S,4R,5R)-3,4-dihydroxy-5-(4-phenyl-thiazol-2-yl)-tetrahydro-furan-2-ylmethyl ester]	100000 nM	> 100000 nM	> 100000 nM
CC(C)C[C@H](N)C(=O)NS(=O)(=O)OC[C@H]1O[C@@H](c2nc(CCc3ccccc3)cs2)[C@H](O)[C@@H]1O [((S)-2-Amino-4-methyl-pentanoyl)-sulfamic acid (2R,3S,4R,5R)-3,4-dihydroxy-5-(4-phenethyl-thiazol-2-yl)-tetrahydro-furan-2-ylmethyl ester]	–	–	< 2 nM
CCC(C)[C@H](N)C(=O)NS(=O)(=O)OC[C@H]1O[C@@H](c2nc(CCc3ccc(Oc4ccccc4)cc3)cs2)[C@H](O)[C@@H]1O (stereo partly drawn) [((S)-2-Amino-3-methyl-pentanoyl)-sulfamic acid (2R,3S,4R,5R)-3,4-dihydroxy-5-{4-[2-(4-phenoxy-phenyl)-ethyl]-thiazol-2-yl}-tetrahydro-furan-2-ylmethyl ester]	110 nM	–	–
CC(C)[C@H](N)C(=O)NS(=O)(=O)OC[C@H]1O[C@@H](c2nc(-c3ccccc3)cs2)[C@H](O)[C@@H]1O [((S)-2-Amino-3-methyl-butyryl)-sulfamic acid (2R,3S,4R,5R)-3,4-dihydroxy-5-(4-phenyl-thiazol-2-yl)-tetrahydro-furan-2-ylmethyl ester]	15000 nM	> 100000 nM	14000 nM
CC(C)C[C@H](N)C(=O)NS(=O)(=O)OC[C@H]1O[C@@H](c2nc(-c3ccc(Oc4ccccc4)cc3)cs2)[C@H](O)[C@@H]1O [((S)-2-Amino-4-methyl-pentanoyl)-sulfamic acid (2R,3S,4R,5R)-3,4-dihydroxy-5-[4-(4-phenoxy-phenyl)-thiazol-2-yl]-tetrahydro-furan-2-ylmethyl ester]	–	–	1.6 nM

More lines, in order of falling IC50 [1], values ahead:

IC50 [1]	IC50 [2]	IC50 [3]	SMILES
100 nM	> 100000 nM	–	CC[C@H](C)[C@H](N)C(=O)NS(=O)(=O)OC[C@H]1O[C@@H](c2nc(-c3ccccc3)cs2)[C@H](O)[C@@H]1O [((2S,3S)-2-Amino-3-methyl-pentanoyl)-sulfamic acid (2R,3S,4R,5R)-3,4-dihydroxy-5-(4-phenyl-thiazol-2-yl)-tetrahydro-furan-2-ylmethyl ester]
100 nM	–	–	CCC(C)[C@H](N)C(=O)NS(=O)(=O)OC[C@H]1O[C@@H](c2nc(-c3ccc(OC)cc3)cs2)[C@H](O)[C@@H]1O (stereo partly drawn) [((S)-2-Amino-3-methyl-pentanoyl)-sulfamic acid (2R,3S,4R,5R)-3,4-dihydroxy-5-[4-(4-methoxy-phenyl)-thiazol-2-yl]-tetrahydro-furan-2-ylmethyl ester]
45 nM	–	–	CCC(C)[C@H](N)C(=O)NS(=O)(=O)OC[C@H]1O[C@@H](c2nc(-c3ccc(Oc4ccccc4)cc3)cs2)[C@H](O)[C@@H]1O (stereo partly drawn) [((S)-2-Amino-3-methyl-pentanoyl)-sulfamic acid (2R,3S,4R,5R)-3,4-dihydroxy-5-[4-(4-phenoxy-phenyl)-thiazol-2-yl]-tetrahydro-furan-2-ylmethyl ester]
30 nM	–	–	CCC(C)[C@H](N)C(=O)NS(=O)(=O)OC[C@H]1O[C@@H](c2nc(CCc3ccccc3)cs2)[C@H](O)[C@@H]1O (stereo partly drawn) [((S)-2-Amino-3-methyl-pentanoyl)-sulfamic acid (2R,3S,4R,5R)-3,4-dihydroxy-5-(4-phenethyl-thiazol-2-yl)-tetrahydro-furan-2-ylmethyl ester]
30 nM	–	–	CCC(C)[C@H](N)C(=O)NS(=O)(=O)OC[C@H]1O[C@@H](c2nc(-c3ccccc3OC)cs2)[C@H](O)[C@@H]1O (stereo partly drawn) [((S)-2-Amino-3-methyl-pentanoyl)-sulfamic acid (2R,3S,4R,5R)-3,4-dihydroxy-5-[4-(2-methoxy-phenyl)-thiazol-2-yl]-tetrahydro-furan-2-ylmethyl ester]
15 nM	–	–	CCC(C)[C@H](N)C(=O)NS(=O)(=O)OC[C@H]1O[C@@H](c2nc(-c3cccc(OC)c3)cs2)[C@H](O)[C@@H]1O (stereo partly drawn) [((S)-2-Amino-3-methyl-pentanoyl)-sulfamic acid (2R,3S,4R,5R)-3,4-dihydroxy-5-[4-(3-methoxy-phenyl)-thiazol-2-yl]-tetrahydro-furan-2-ylmethyl ester]
